Experimental findings from the SangsterLogP compilation are described below.

Data set [1] is described as follows: method code SF-AS, from PMID: 7306420. Particulars: pH 7.5.
Assay in data set [2]: not given
The source holds these as a separate data set.

The nature of data set [3]: method code SF-AS, from DOI: 10.1016/0048-3575(89)90091-6.
Assay in data set [4]: not given
The source holds these as a separate data set.

Assay in data set [5]: not given
The source holds these as a separate data set.

Data set [6] is described as follows: method code SF-HPLC, from DOI: 10.1016/0378-5173(94)90060-4. Particulars: pH 5.0.
Data set [7] can be described thus: method code SF, from DOI: 10.1016/0223-5234(96)89550-x.
Data set [8] can be described thus: method code SF-RC, from DOI: 10.17863/cam.48378, PMID: 23133799. The following applies: pH 7.4.
Data set [9] can be described thus: method code SF, from DOI: 10.1016/s0223-5234(00)80025-2, PMID: 11278041. Particulars: pH 7.4.
Assay in data set [10]: not given
This is another data set of the same source.

Data set [11] in a line: method code SF-AS, from DOI: 10.1021/jm9800301, PMID: 9748357. Particulars: pH 7.4.
Data set [12] is described as follows: method code SF-AS, from DOI: 10.1111/j.2042-7158.1989.tb06480.x, PMID: 2570831. The following applies: pH 7.4.
Assay in data set [13]: not given
The source holds these as a separate data set.

Assay in data set [14]: not given
This is another data set of the same source.

Assay in data set [15]: not given
The source holds these as a separate data set.

Assay in data set [16]: not given
The source holds these as a separate data set.

Data set [17] can be described thus: method code SF, from DOI: 10.1016/s0969-8051(99)00063-3, PMID: 10628565. Particulars: pH 7.4.
Assay in data set [18]: not given
The source holds these as a separate data set.

Assay in data set [19]: not given
This is another data set of the same source.

Data set [20] can be described thus: method code SF, from DOI: 10.1016/j.ejps.2014.02.002, PMID: 24530864. Particulars: pH 7.4.
Data set [21] is described as follows: method code SF-RC, from DOI: 10.1267/nukl06010041, PMID: 16493513. Particulars: pH 7.4.
Data set [22] in a line: method code SF-HPLC, from DOI: 10.1021/jm1007903, PMID: 20828199. The following applies: pH 7.4.
A short description of data set [23]: method code SF-AS, from PMID: 582102. The following applies: pH 3.0.
Data set [24] in a line: method code SF-RC, from DOI: 10.1021/jm701375u, PMID: 18307287. The following applies: pH 7.4.
Data set [25] in a line: method code SF, from DOI: 10.1021/acs.jmedchem.6b00554, PMID: 27500461. Particulars: pH 7.4.
Data set [26] in a line: method code SF, from Zhang, Y. (2010). Determination and Correlation of 1-Octanol/Water Partition Coefficients for Six Quinolones from 293.15 K to 323.15 K. Chemical Research in Chinese Universities, 26(4)636-639.
Data set [27] is described as follows: method code SF-AS, from DOI: 10.1016/s0928-0987(01)00170-1, PMID: 11500262. Particulars: pH 12.5.
Assay in data set [28]: not given
The source holds these as a separate data set.

Assay in data set [29]: not given
This is another data set of the same source.

The nature of data set [30]: method code SF-AS, from DOI: 10.1016/j.ejps.2014.12.009, PMID: 25513709. The following applies: pH 7.4.
Data set [31] can be described thus: method code SF-HPLC, from DOI: 10.1016/0378-5173(85)90221-2. The following applies: pH 1.5.
Data set [32] can be described thus: method code SF-AS, from DOI: 10.1002/jps.2600701116, PMID: 7299671. Particulars: pH 2.2.
Assay in data set [33]: not given
The source holds these as a separate data set.

Assay in data set [34]: not given
This is another data set of the same source.

Data set [35] is described as follows: method code SF-HPLC, from DOI: 10.1016/j.ejmech.2009.03.025, PMID: 19386398. The following applies: pH 7.4.
Data set [36] in a line: method code SF-GLC, from DOI: 10.1584/jpestics.7.397.
Assay in data set [37]: not given
This is another data set of the same source.

Data set [38] can be described thus: method code SF-AS, from DOI: 10.3390/molecules16097565, PMID: 21894089.
A short description of data set [39]: method code SF-HPLC, from DOI: 10.1016/j.bmc.2009.06.014, PMID: 19586774. The following applies: pH 7.4.
Assay in data set [40]: not given
This is another data set of the same source.

Data set [41] is described as follows: method code SF, from DOI: 10.1097/00004424-199009001-00048. Particulars: pH 7.4.
Data set [42] in a line: method code SF-RC, from DOI: 10.1021/es60172a005, PMID: 22280000.

A word on the logD: it is the decadic logarithm of the distribution of all forms, ionised or not, between an organic phase and buffer at a given pH. Read a low logD as a more hydrophilic compound. By logP is commonly meant a log measure of how a compound divides between an organic and an aqueous phase. Read a low logP as lower lipophilicity.

`C#CCN1C(=O)CN=C(c2ccccc2)c2cc(Cl)ccc21` had a pH-dependent lipophilicity (logD) in data set [1] of 2.87.
As for `CCN(CC)CCN1c2ccccc2Sc2ccccc21`, the logP came to 5.94.
Turning to `O=C1/C(=C/c2ccccc2F)CCCc2ccccc21`, the logP in [2] amounted to 4.55.
Molecule `CC1(C)C(C=C2CCSC2=O)C1C(=O)OCc1ccccc1` (stereo not drawn) yielded a lipophilicity (logP) in data set [3] of 4.02.
The molecule `COc1ccc(C2=CC(c3ccc(S(C)(=O)=O)cc3)C=NC2=O)cn1` (stereo not drawn) yielded a log partition coefficient (logP) in [4] of 1.7.
As for `Cc1ccc(CCNc2cc(-c3n[nH]c(N)n3)ccn2)cc1C`, the logP in data set [5] turned out to be 3.08.
Molecule `COC(=O)Nc1nc2cc(C(=O)c3ccccc3)ccc2n1C(=O)OC` gave a logD in data set [6] of 2.47.
`O=C(Nc1ccn(C2CSC(CO)O2)c(=O)n1)c1cnc2ccccc2c1` (stereo not drawn) had a logP in data set [7] of 0.87.
Molecule `FCCOCCON=C1C=C(C#Cc2ccccn2)CCC1` showed a logD in data set [8] of 1.9.
For `CC(C)Cc1ccc(C(C)C(=O)OCN2C(=O)CCC2=O)cc1` (stereo not drawn), the logD in data set [9] amounted to 2.62.
The molecule `O=C(NC12CC3CC(CC(C3)C1)C2)C(O)c1ccccc1` (stereo not drawn) yielded a lipophilicity (logP) in data set [10] of 3.09.
In [11], `O=C(NCc1ccc(O)cc1)C(=O)c1c[nH]c2ccc([N+](=O)[O-])cc12` came in with a log distribution coefficient (logD) of 2.67.
In data set [12], `Nc1ncnc2c1ncn2C(c1ccccc1)c1ccccc1` showed a logD of 3.19.
With `CCN1CCc2cc(S(=O)(=O)Nc3ccc(F)cc3F)cc(NC(C)=O)c21`, the log partition coefficient (logP) in data set [13] stood at 1.4.
For the molecule `c1ccc(Oc2ccccc2-c2ccccc2)cc1`, in data set [14], the log partition coefficient (logP) is 5.66.
Consider `COCCN1C=CC(=C2C(=O)c3ccc(Cl)cc3C2=O)C=C1`, for which the logP in data set [15] came to 2.78.
For `CC[C@H](Oc1ccccc1)C(=O)N[C@@H]1C(=O)N2[C@@H]1SC(C)(C)[C@@H]2C(=O)O`, the logP in data set [16] came out at 2.58.
On to `CC(=O)OCC1C(OC(C)=O)C(OC(C)=O)C(OC(C)=O)CN1CCCI` (stereo not drawn), for which the logD in data set [17] is 1.76.
In turn, `CCC(c1ccc(O)cc1)C(C(C)=O)c1ccc(O)cc1` (stereo not drawn) had a logP in data set [18] of 3.1.
In [19], `CN(C)CC/C=C1/c2ccccc2Sc2ccc(Cl)cc21` registered a logP of 5.18.
The molecule `Cc1ncc2n1-c1ccc(Cl)cc1C(c1ccccc1F)=NC2` returned a log distribution coefficient (logD) in [20] of 3.
The molecule `Clc1ccc(N2CCN(Cc3cnn4c(I)cccc34)CC2)cc1` showed a log distribution coefficient (logD) in [21] of 2.36.
For `CCCCCCCc1c(C)[nH]c2cc(OC)c(Cl)cc2c1=O`, in [22], the logD was 3.83.
In [23], `COc1ccc(N(CCCC(=O)O)C(=O)c2ccc(Cl)cc2)cc1` showed a logD of 2.7.
Consider `Brc1cccc(N2CCN(Cc3cnn4ccccc34)CC2)n1`, for which the log distribution coefficient (logD) in data set [24] came out at 1.98.
Regarding `Cc1sc(=NC(=O)C2C(C)(C)C2(C)C)n(CCCCF)c1C`, the log distribution coefficient (logD) in [25] amounted to 3.22.
As to `CC1COc2c(N3CCN(C)CC3)c(F)cc3c(=O)c(C(=O)O)cn1c23` (stereo not drawn), the logP in data set [26] was -0.05.
Molecule `CN(C)CCCc1ccccc1-c1ccccc1` gave a logD in data set [27] of 5.53.
For `CCCn1c(=O)c2[nH]c(-c3ccc(S(=O)(=O)O)cc3)nc2n(CCC)c1=O`, the logP in data set [28] was -0.03.
`CCC(C)(CC)c1cc(NC(=O)c2c(OC)cccc2OC)on1` had a logP in data set [29] of 3.
For the molecule `COC1=CC(=O)CC(C)C12Oc1c(Cl)c(OC)cc(OC)c1C2=O` (stereo not drawn), in data set [30], the pH-dependent lipophilicity (logD) stood at 2.33.
For the molecule `CCCc1c2c(c(O)c3c(=O)cc(C(=O)O)oc13)CCCC2`, the logD in [31] stood at 4.4.
In the case of `C=C(CC(=O)c1ccc(-c2ccccc2Cl)cc1)C(=O)O`, the logD in data set [32] amounted to 3.32.
In data set [33], `CC(=O)Oc1c(C)cc(OCC(O)CNC(C)C)c(C)c1C` (stereo not drawn) returned a lipophilicity (logP) of 1.95.
In turn, `N#Cc1ccc(CN2CCC(COC/C=C/I)CC2)cc1` displayed a logP in [34] of 3.24.
For `Cc1ccc(N=NC(C)C(=O)NCCc2ccc(O)cc2)cc1` (stereo not drawn), the logD in data set [35] was 3.9.
Molecule `CC(C)Oc1cccc(NC(=O)c2ccccc2C(F)(F)F)c1` yielded a logP in data set [36] of 3.7.
`CN(C)CCc1c[nH]c2ccc(CS(=O)(=O)N3CCCC3)cc12` came in with a lipophilicity (logP) in [37] of 1.6.
`C[C@H](c1nc2ccc(F)cc2s1)N1C(=O)C(=O)N(c2ccccc2)C1=O` returned a lipophilicity (logP) in data set [38] of 1.51.
In [39], `CCc1cc(Cl)cc2[nH]c(=O)c(-c3cccc(NC)c3)c(O)c12` gave a pH-dependent lipophilicity (logD) of 1.92.
`CCCCCCCCCCOc1ccc(C(=O)O)cc1` registered a lipophilicity (logP) in [40] of 5.77.
`O=C(NCC(O)CO)c1c(I)c(C(=O)NCC(O)CO)c(I)c(N(CCO)C(=O)CO)c1I` (stereo not drawn): the logD in data set [41] was -2.98.
In data set [42], `c1ccc2nc(-c3ccc4ccccc4n3)ccc2c1` came in with a logP of 4.31.
